Source: PubChem BioAssay AID1963977 (Molecular Pharmacology Branch, DTP, NCI, 2024)

Test system: 624824-186-R-J3-PDC multicell spheroids, viability
Experiment: Anticancer human tumor 624824-186-R-J3-PDC patient-derived colon adenocarcinoma cell line growth inhibition [PI3K]
Conditions: for IC50: curve of first compound; for viability, T/C: stronger effect = lower value
Procedure, shortened: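 Three cell types, namely tumor cells, endothelial cells and mesenchymal stem cells, formed each spheroid. Combinations with four PI3K inhibitors were screened at clinically achievable concentrations decreasing by half-log, and spheroid viability was recorded.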

[1] = second compound 0.0316 µM, first compound 0.0316 µM
[2] = second compound 0.0316 µM, first compound 0.1 µM
[3] = second compound 0.0316 µM, first compound 0.316 µM
[4] = second compound 0.0316 µM, first compound 1 µM
[5] = second compound 0.0316 µM, first compound 3.16 µM
[6] = second compound 0.0316 µM, first compound 10 µM
[7] = second compound 0.1 µM, first compound 0.0316 µM
[8] = second compound 0.1 µM, first compound 0.1 µM
[9] = second compound 0.1 µM, first compound 0.316 µM
[10] = second compound 0.1 µM, first compound 1 µM
[11] = second compound 0.1 µM, first compound 3.16 µM
[12] = second compound 0.1 µM, first compound 10 µM
[13] = second compound 0.316 µM, first compound 0.0316 µM
[14] = second compound 0.316 µM, first compound 0.1 µM
[15] = second compound 0.316 µM, first compound 0.316 µM
[16] = second compound 0.316 µM, first compound 1 µM
[17] = second compound 0.316 µM, first compound 3.16 µM
[18] = second compound 0.316 µM, first compound 10 µM
[19] = second compound 1 µM, first compound 0.0316 µM
[20] = second compound 1 µM, first compound 0.1 µM
[21] = second compound 1 µM, first compound 0.316 µM
[22] = second compound 1 µM, first compound 1 µM
[23] = second compound 1 µM, first compound 3.16 µM
[24] = second compound 1 µM, first compound 10 µM
[25] = second compound 3.16 µM, first compound 0.0316 µM
[26] = second compound 3.16 µM, first compound 0.1 µM
[27] = second compound 3.16 µM, first compound 0.316 µM
[28] = second compound 3.16 µM, first compound 1 µM
[29] = second compound 3.16 µM, first compound 3.16 µM
[30] = second compound 3.16 µM, first compound 10 µM
[31] = second compound 10 µM, first compound 0.0316 µM
[32] = second compound 10 µM, first compound 0.1 µM
[33] = second compound 10 µM, first compound 0.316 µM
[34] = second compound 10 µM, first compound 1 µM
[35] = second compound 10 µM, first compound 3.16 µM
[36] = second compound 10 µM, first compound 10 µM
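Further: spheroids exposed to agents for seven days before luminescence read.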
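Wherever viability, T/C is given: luminescent signal used as a stand-in for spheroid viability; percent viability relative to DMSO vehicle control wells taken as 100%.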

C#Cc1c(F)ccc2cc(O)cc(-c3ncc4c(N5CC6CCC(C5)N6)nc(OCC56CCCN5CC(F)C6)nc4c3F)c12 (stereo not drawn) + CC(Nc1ncnc2nc[nH]c12)c1cc2cccc(Cl)c2c(=O)n1-c1ccccc1 gave an IC50 (second compound 0.0316 µM) greater than 10 µM, an IC50 (second compound 0.1 µM) greater than 10 µM and an IC50 (second compound 0.316 µM) greater than 10 µM. It also gave an IC50 (second compound 1 µM) greater than 10 µM, an IC50 (second compound 3.16 µM) greater than 10 µM and an IC50 (second compound 10 µM) greater than 10 µM. It also gave a viability, T/C [1] of 115%, a viability, T/C [2] of 93.2% and a viability, T/C [3] of 104%. The viability, T/C [4] was 101%, the viability, T/C [5] was 97% and the viability, T/C [6] was 117%. For the same molecule, the viability, T/C [7] was 106%, the viability, T/C [8] was 99.2% and the viability, T/C [9] was 117%. The viability, T/C [10] was 113%, the viability, T/C [11] was 105% and the viability, T/C [12] was 115%. It also gave a viability, T/C [13] of 88.4%, a viability, T/C [14] of 103% and a viability, T/C [15] of 109%. It also gave a viability, T/C [16] of 102%, a viability, T/C [17] of 114% and a viability, T/C [18] of 115%. The viability, T/C [19] was 102%, the viability, T/C [20] was 110% and the viability, T/C [21] was 108%. For the same molecule, the viability, T/C [22] was 103%, the viability, T/C [23] was 111% and the viability, T/C [24] was 112%. It also gave a viability, T/C [25] of 96%, a viability, T/C [26] of 105% and a viability, T/C [27] of 105%. The viability, T/C [28] was 95.3%, the viability, T/C [29] was 100% and the viability, T/C [30] was 110%. The viability, T/C [31] was 96.3%, the viability, T/C [32] was 97% and the viability, T/C [33] was 94.5%. For the same molecule, the viability, T/C [34] was 92.8%, the viability, T/C [35] was 98.3% and the viability, T/C [36] was 85.7%.
With CC1(C)CCC(Nc2ncc(C(F)(F)F)c(-c3c[nH]c4c(P(C)(C)=O)c(C#N)ccc34)n2)CN1 (stereo not drawn) + CC(Nc1ncnc2nc[nH]c12)c1cc2cccc(Cl)c2c(=O)n1-c1ccccc1 the IC50 (second compound 0.0316 µM) was 5.14 µM, the IC50 (second compound 0.1 µM) was 5.36 µM and the IC50 (second compound 0.316 µM) was 5.34 µM. For the same molecule, the IC50 (second compound 1 µM) was 5.19 µM, the IC50 (second compound 3.16 µM) was 5.01 µM and the IC50 (second compound 10 µM) was 3.65 µM. For the same molecule, the viability, T/C [1] was 99%, the viability, T/C [2] was 85.7% and the viability, T/C [3] was 92.2%. For the same molecule, the viability, T/C [4] was 92.5%, the viability, T/C [5] was 83.8% and the viability, T/C [6] was 3.64%. The viability, T/C [7] was 115%, the viability, T/C [8] was 89% and the viability, T/C [9] was 89.2%. The viability, T/C [10] was 99%, the viability, T/C [11] was 89% and the viability, T/C [12] was 3.93%. For the same molecule, the viability, T/C [13] was 99.2%, the viability, T/C [14] was 92.4% and the viability, T/C [15] was 82.2%. For the same molecule, the viability, T/C [16] was 85.1%, the viability, T/C [17] was 88.1% and the viability, T/C [18] was 4.29%. It also gave a viability, T/C [19] of 90.8%, a viability, T/C [20] of 86.2% and a viability, T/C [21] of 87.3%. For the same molecule, the viability, T/C [22] was 95.5%, the viability, T/C [23] was 84.8% and the viability, T/C [24] was 3.92%. For the same molecule, the viability, T/C [25] was 79.5%, the viability, T/C [26] was 82.5% and the viability, T/C [27] was 78%. For the same molecule, the viability, T/C [28] was 80.9%, the viability, T/C [29] was 82.3% and the viability, T/C [30] was 4.17%. It also gave a viability, T/C [31] of 66.5%, a viability, T/C [32] of 63.2% and a viability, T/C [33] of 63.2%. The viability, T/C [34] was 60.9%, the viability, T/C [35] was 57% and the viability, T/C [36] was 3.67%.
CNC(=O)c1ccc(N2C(=S)N(c3ccc(C#N)c(C(F)(F)F)c3)C(=O)C2(C)C)cc1F + COc1c(OCCCN2CCOCC2)ccc2c3n(c(=NC(=O)c4cnc(N)nc4)nc12)CCN3 showed an IC50 (second compound 0.00316 µM) greater than 10 µM, an IC50 (second compound 0.01 µM) greater than 10 µM and an IC50 (second compound 0.0316 µM) greater than 10 µM. The IC50 (second compound 0.1 µM) was greater than 10 µM, the IC50 (second compound 0.316 µM) was less than 0.0316 µM and the IC50 (second compound 1 µM) was less than 0.0316 µM. The viability, T/C (second compound 0.00316 µM, first compound 0.0316 µM) was 116%, the viability, T/C (second compound 0.00316 µM, first compound 0.1 µM) was 92.3% and the viability, T/C (second compound 0.00316 µM, first compound 0.316 µM) was 114%. It also gave a viability, T/C (second compound 0.00316 µM, first compound 1 µM) of 103%, a viability, T/C (second compound 0.00316 µM, first compound 3.16 µM) of 105% and a viability, T/C (second compound 0.00316 µM, first compound 10 µM) of 107%. It also gave a viability, T/C (second compound 0.01 µM, first compound 0.0316 µM) of 102%, a viability, T/C (second compound 0.01 µM, first compound 0.1 µM) of 94.5% and a viability, T/C (second compound 0.01 µM, first compound 0.316 µM) of 101%. It also gave a viability, T/C (second compound 0.01 µM, first compound 1 µM) of 94%, a viability, T/C (second compound 0.01 µM, first compound 3.16 µM) of 104% and a viability, T/C (second compound 0.01 µM, first compound 10 µM) of 98%. The viability, T/C [1] was 91.1%, the viability, T/C [2] was 102% and the viability, T/C [3] was 91.2%. The viability, T/C [4] was 93.2%, the viability, T/C [5] was 88.9% and the viability, T/C [6] was 88.8%. The viability, T/C [7] was 78%, the viability, T/C [8] was 74.5% and the viability, T/C [9] was 89.4%. It also gave a viability, T/C [10] of 71.8%, a viability, T/C [11] of 73% and a viability, T/C [12] of 72.5%. It also gave a viability, T/C [13] of 49.2%, a viability, T/C [14] of 50.8% and a viability, T/C [15] of 47.5%. It also gave a viability, T/C [16] of 48.5%, a viability, T/C [17] of 47.6% and a viability, T/C [18] of 34.1%. For the same molecule, the viability, T/C [19] was 26.7%, the viability, T/C [20] was 31% and the viability, T/C [21] was 26.7%. It also gave a viability, T/C [22] of 27.5%, a viability, T/C [23] of 26.2% and a viability, T/C [24] of 23.9%.
For Cn1cnc2c(F)c(Nc3ccc(Br)cc3Cl)c(C(=O)NOCCO)cc21 + COc1c(OCCCN2CCOCC2)ccc2c3n(c(=NC(=O)c4cnc(N)nc4)nc12)CCN3, the IC50 (second compound 0.00316 µM) was 0.854 µM, the IC50 (second compound 0.01 µM) was 0.582 µM and the IC50 (second compound 0.0316 µM) was 0.189 µM. It also gave an IC50 (second compound 0.1 µM) of 0.0474 µM, an IC50 (second compound 0.316 µM) of less than 0.00949 µM and an IC50 (second compound 1 µM) of less than 0.00949 µM. It also gave a viability, T/C (second compound 0.00316 µM, first compound 0.00949 µM) of 102%, a viability, T/C (second compound 0.00316 µM, first compound 0.03 µM) of 95.9% and a viability, T/C (second compound 0.00316 µM, first compound 0.0949 µM) of 102%. For the same molecule, the viability, T/C (second compound 0.00316 µM, first compound 0.3 µM) was 87.8%, the viability, T/C (second compound 0.00316 µM, first compound 0.949 µM) was 46.3% and the viability, T/C (second compound 0.00316 µM, first compound 3 µM) was 31.4%. The viability, T/C (second compound 0.01 µM, first compound 0.00949 µM) was 108%, the viability, T/C (second compound 0.01 µM, first compound 0.03 µM) was 88.4% and the viability, T/C (second compound 0.01 µM, first compound 0.0949 µM) was 86.4%. The viability, T/C (second compound 0.01 µM, first compound 0.3 µM) was 65.5%, the viability, T/C (second compound 0.01 µM, first compound 0.949 µM) was 37.1% and the viability, T/C (second compound 0.01 µM, first compound 3 µM) was 18.4%. The viability, T/C (second compound 0.0316 µM, first compound 0.00949 µM) was 88.9%, the viability, T/C (second compound 0.0316 µM, first compound 0.03 µM) was 89.6% and the viability, T/C (second compound 0.0316 µM, first compound 0.0949 µM) was 67.4%. It also gave a viability, T/C (second compound 0.0316 µM, first compound 0.3 µM) of 37.7%, a viability, T/C (second compound 0.0316 µM, first compound 0.949 µM) of 18.2% and a viability, T/C (second compound 0.0316 µM, first compound 3 µM) of 11.2%. The viability, T/C (second compound 0.1 µM, first compound 0.00949 µM) was 75.2%, the viability, T/C (second compound 0.1 µM, first compound 0.03 µM) was 57.9% and the viability, T/C (second compound 0.1 µM, first compound 0.0949 µM) was 38.5%. The viability, T/C (second compound 0.1 µM, first compound 0.3 µM) was 21%, the viability, T/C (second compound 0.1 µM, first compound 0.949 µM) was 13.5% and the viability, T/C (second compound 0.1 µM, first compound 3 µM) was 5.3%. The viability, T/C (second compound 0.316 µM, first compound 0.00949 µM) was 43.3%, the viability, T/C (second compound 0.316 µM, first compound 0.03 µM) was 28.9% and the viability, T/C (second compound 0.316 µM, first compound 0.0949 µM) was 17.9%. The viability, T/C (second compound 0.316 µM, first compound 0.3 µM) was 9.77%, the viability, T/C (second compound 0.316 µM, first compound 0.949 µM) was 4.7% and the viability, T/C (second compound 0.316 µM, first compound 3 µM) was 1.14%. The viability, T/C (second compound 1 µM, first compound 0.00949 µM) was 22.7%, the viability, T/C (second compound 1 µM, first compound 0.03 µM) was 16% and the viability, T/C (second compound 1 µM, first compound 0.0949 µM) was 10.1%. It also gave a viability, T/C (second compound 1 µM, first compound 0.3 µM) of 8.08%, a viability, T/C (second compound 1 µM, first compound 0.949 µM) of 3.21% and a viability, T/C (second compound 1 µM, first compound 3 µM) of 1.3%.
